The source of these data is patent publication US5324648A, “Substituted isocoumarins as serine protease inhibitors and anti-inflammatory agents” (Georgia Tech Research Corporation, priority 1992, dated 1994).

The structures appear in SMILES notation. Where two headings read alike, the source gives them in different places.

One data set concerns the target T1, mouse granzyme A (Mus musculus, UniProt P11032).
T1 construct: mouse cytotoxic lymphocyte granzyme A; endogenous in cells; host or cells: mouse cytotoxic lymphocytes
T1 sequence (P11032 29-260): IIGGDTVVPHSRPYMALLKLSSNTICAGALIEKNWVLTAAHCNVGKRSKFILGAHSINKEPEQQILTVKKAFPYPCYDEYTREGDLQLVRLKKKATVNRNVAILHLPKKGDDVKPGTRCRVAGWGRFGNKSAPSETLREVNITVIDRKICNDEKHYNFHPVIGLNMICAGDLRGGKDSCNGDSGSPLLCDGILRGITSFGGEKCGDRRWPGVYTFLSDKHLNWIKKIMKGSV
The data set can be described thus: Inactivation rate of mouse granzyme A. Type of data set: biochemical. The conditions noted are these: Table VII; pH 7.5, 25° C; [I] 0.4 to 45 μM; read-out: kobs/[I]. How it is done: (§1) Inactivation rates of serine proteases by substituted isocoumarins were measured by the incubation method. An aliquot of inhibitor (25 or 50 μl) in Me2 SO was added to a buffered enzyme solution (0.01-2.3 μM) to initiate the inactivation. Aliquots (50 μl) were withdrawn at various intervals and the residual enzymatic activity was measured. Me2 SO concentration in the reaction mixture was 8-12% (v/v). 0.1 Hepes, 0.01M CaCl2, pH 7.5 buffer was utilized for trypsin and coagulation enzymes. 0.1M Hepes, 0.5M NaCl, pH 7.5 was utilized for other serine proteases. The inhibitor concentrations are shown in all the tables. Peptide thioesters or peptide nitroanilides with appropriate sequence were used as substrates for various serine proteases. All peptide thioester hydrolysis rates were measured with assay mixtures containing 4,4'-dithiodipyridine (ε324 =19800M^-1 cm^-1; Grasetti & Murray, Arch. Biochem. Biophys. 119, pp 41-49 (1967)). Peptide 4-nitroanilide nitroanilide hydrolysis was measured at 410 nm (ε410 =8800M^-1 cm^-1; Erlanger et al., Arch. Biochem. Biophys. 95, pp 271-278 (1961)). First order inactivation rate constant (kobs) were obtained from plots of ln (vt /vo) vs time, and the correlation coefficients were greater than 0.98.
^a Inactivation rates were measured at 0.1M Hepes, 0.01M CaCl2,
pH 7.5, 8% Me2 SO and 25° C. by incubation method. ZArg-SBzl
(74-85 μM) was used as the substrate to monitor the residual enzymatic

Another data set deals with T2, Cl^- r (Homo sapiens, UniProt P00736).
T2 construct: Cl^- r^f
T2 sequence (P00736 464-705 limits assumed): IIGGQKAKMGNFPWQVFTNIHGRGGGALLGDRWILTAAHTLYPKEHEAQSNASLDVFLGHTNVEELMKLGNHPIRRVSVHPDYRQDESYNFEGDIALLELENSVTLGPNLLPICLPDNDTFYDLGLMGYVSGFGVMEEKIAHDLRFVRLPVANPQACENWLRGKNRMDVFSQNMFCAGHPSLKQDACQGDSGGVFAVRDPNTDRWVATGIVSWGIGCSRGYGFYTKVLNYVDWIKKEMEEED
T2 sequence (P00736 18-463 partner limits assumed): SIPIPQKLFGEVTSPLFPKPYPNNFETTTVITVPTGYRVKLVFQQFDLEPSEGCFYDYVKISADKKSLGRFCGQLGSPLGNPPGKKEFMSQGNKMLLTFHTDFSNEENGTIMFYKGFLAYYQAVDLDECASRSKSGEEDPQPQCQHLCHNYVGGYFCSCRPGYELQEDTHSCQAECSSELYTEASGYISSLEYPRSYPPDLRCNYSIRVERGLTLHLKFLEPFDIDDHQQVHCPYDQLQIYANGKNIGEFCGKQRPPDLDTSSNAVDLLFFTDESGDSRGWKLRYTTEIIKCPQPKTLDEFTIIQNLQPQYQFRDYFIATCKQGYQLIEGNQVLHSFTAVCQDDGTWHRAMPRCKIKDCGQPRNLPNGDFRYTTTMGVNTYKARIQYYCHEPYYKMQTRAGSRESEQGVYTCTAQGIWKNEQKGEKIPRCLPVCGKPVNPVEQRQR
Kind of data set: Inactivation rate of complement protein C1r. Conditions: Table II; pH 7.5, 25° C; [I] 4.6 to 470 μM; read-out: kobs/[I]. Format: biochemical. Here is the method:
as §1
(§2) ^a Conditions were 0.1M Hepes, 0.5M NaCl, pH 7.5, 8-10% Me2 SO
(§3) and 25° C. Inactivation rates were measured by incubation method.
(§4) Enzyme concentrations were as follows: protein D, 1-9 μM; C2, 0.7-1
(§5) μM; B, 1.8 μM; Bb, 0.3-0.8 μM; Cl^- s, 0.07 μM; Cl^-

In the next data set the target is chymotrypsin (Bos taurus, UniProt P00766). Kind of data set: Inactivation of chymotrypsin. Type of data set: biochemical, bovine. Conditions: pH 7.5, 25° C, read-out: kobs/[I].
The target of another data set is human lung tryptase. Kind of data set: Inactivation rate of human lung tryptase. Type of data set: biochemical. The conditions noted are these: pH 7.5, 25° C. Put shortly:
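Incubation method in 0.1M Hepes, 0.5M NaCl, pH 7.5, 8% Me2SO, 25° C; inhibitor added to enzyme, aliquots withdrawn over time for residual activity. Substrate ZArg-SBzl (0.07 mM) with 4,4'-dithiodipyridine (0.33 mM). kobs from ln(vt/vo) vs time plots.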

Data set [1] is described as follows: Spontaneous hydrolysis in Hepes buffer. Format: physicochemical. The conditions noted are these: 0.1 Hepes, 0.5M NaCl, pH 7.5, 9% Me2SO, 25° C; for half-life: hepes buffer, read-out: t1/2 for spontaneous hydrolysis. How it is done: ^a Conditions were 0.1 Hepes, 0.5M NaCl, pH 7.5 and 9% Me2 SO at
25° C. Spontaneous hydrolysis rates were measured
spectrophotometrically by monitoring the decrease in absorbance due to th
isocoumarin ring system (wavelength 335-380 nm) using the firstorder rate

Another data set addresses T3, rat skin tryptase (Rattus norvegicus, UniProt P27435).
T3 construct: from tissue; host or cells: rat skin
Kind of data set: Inactivation rate of rat skin tryptase. Conditions: pH 7.5, 25° C, read-out: kobs/[I]. Type of data set: biochemical. Put shortly:
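Rat skin tryptase incubated with isocoumarin inhibitor in 25 mM phosphate, 0.5 M NaCl, 1 mM EDTA, pH 7.5, 8-9% Me2SO, 25 °C; aliquots withdrawn over time for residual activity on ZArg-SBzl (0.07 mM) with 4,4'-dithiodipyridine (0.33 mM). First-order kobs from ln(vt/vo) versus time.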

Another data set concerns the target complement protein D (Homo sapiens, UniProt P00746). The data set can be described thus: Inactivation rate of complement protein D. Format: biochemical. The conditions noted are these: Table II; pH 7.5, 25° C; [I] 0.05 to 1.29 mM; read-out: kobs/[I]. How it is done:
as §1, §2, §3, §4, §5

The mark [2] stands for this setting: pH 7.5, Table III, 25 mM phosphate, [I] 0.4 to 50 μM.
Where [3] appears, read: pH 7.5, Table IX, [I] 0.42-0.51 μM.

Sequence of complement protein D (P00746 26-253): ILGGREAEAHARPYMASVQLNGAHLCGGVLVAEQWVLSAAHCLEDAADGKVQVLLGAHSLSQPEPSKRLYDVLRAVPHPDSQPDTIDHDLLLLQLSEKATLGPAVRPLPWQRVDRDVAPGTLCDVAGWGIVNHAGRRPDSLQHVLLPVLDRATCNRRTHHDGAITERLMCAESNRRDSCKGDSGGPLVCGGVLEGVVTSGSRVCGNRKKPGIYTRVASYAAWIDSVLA
T3 sequence (P27435 29-273): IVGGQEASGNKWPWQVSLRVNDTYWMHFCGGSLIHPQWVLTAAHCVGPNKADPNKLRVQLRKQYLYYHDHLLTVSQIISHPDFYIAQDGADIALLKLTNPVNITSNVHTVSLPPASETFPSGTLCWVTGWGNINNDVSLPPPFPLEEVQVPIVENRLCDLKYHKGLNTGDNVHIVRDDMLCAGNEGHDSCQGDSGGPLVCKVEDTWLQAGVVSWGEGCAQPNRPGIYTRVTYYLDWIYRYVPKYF

`N=C(N)Nc1ccc2c(Cl)c(OCCc3ccccc3)oc(=O)c2c1` [7-guanidino-4-chloro-3-(2-phenylethoxy)isocoumarin]: the kinact/KI on mouse granzyme A stood at 6400 M⁻¹ s⁻¹; on Cl^- r, 342 M⁻¹ s⁻¹; on chymotrypsin (Table IV, [I] 0.004 to 0.33 mM), 38000 M⁻¹ s⁻¹; on rat skin tryptase (setting [2]), 86000 M⁻¹ s⁻¹; at complement protein D, 92 M⁻¹ s⁻¹. Besides, on human lung tryptase (Table III, [I] 0.4 to 50 μM), the “kobs/[I]” value is given as 56,000 M^-1 s^-1. In data set [1], the half-life came to 0.6 h.
For `O=c1oc(Cl)c(Cl)c2ccccc12` [3,4-dichloroisocoumarin, reference compound], the kinact/KI at mouse granzyme A amounted to 50 M⁻¹ s⁻¹; on Cl^- r, 42 M⁻¹ s⁻¹; at rat skin tryptase (setting [2]), 610 M⁻¹ s⁻¹; on complement protein D, 192 M⁻¹ s⁻¹. Moreover, the “kobs/[I]” value at human lung tryptase (Table III, [I] 0.4 to 50 μM) came to 185 M⁻¹ s⁻¹.
As for `N=C(N)SCCCOc1oc(=O)c2cc(N)ccc2c1Cl` [7-amino-4-chloro-3-(3-isothiureidopropoxy)isocoumarin], the kinact/KI on mouse granzyme A turned out to be 3000 M⁻¹ s⁻¹; at Cl^- r, 1320 M⁻¹ s⁻¹; on chymotrypsin (Table IV, [I] 0.004 to 0.33 mM), 1600 M⁻¹ s⁻¹; on rat skin tryptase (setting [2]) it was 63000 M⁻¹ s⁻¹; at rat skin tryptase (setting [3]) it was 39000 M⁻¹ s⁻¹; at complement protein D, 55 M⁻¹ s⁻¹. The “kobs/[I]” value is 28,000 M^-1 s^-1 at human lung tryptase (Table III, [I] 0.4 to 50 μM) and 19,000 M^-1 s^-1 on human lung tryptase (Table IX, [I] 0.42-0.47 μM). The “t1/2 for spontaneous hydrolysis” value in data set [1] came out at 1.5 h.
Take `N=C(N)SCCOc1oc(=O)c2ccccc2c1Cl` [3-(2-isothiureidoethoxy)-4-chloroisocoumarin]: the kinact/KI on chymotrypsin (Table IV, [I] 0.004 to 0.33 mM) amounted to 1300 M⁻¹ s⁻¹; on complement protein D, 61 M⁻¹ s⁻¹. Besides, the half-life in data set [1] is 1.38 h.
For the molecule `COc1oc(=O)c2cc(NC(=N)N)ccc2c1Cl` [7-guanidino-4-chloro-3-methoxyisocoumarin], the kinact/KI on mouse granzyme A was determined as 15000 M⁻¹ s⁻¹; on Cl^- r, 75 M⁻¹ s⁻¹; on chymotrypsin (Table IV, [I] 0.004 to 0.33 mM), 7200 M⁻¹ s⁻¹; on rat skin tryptase (setting [2]), 52000 M⁻¹ s⁻¹; on complement protein D, 252 M⁻¹ s⁻¹. In addition, at human lung tryptase (Table III, [I] 0.4 to 50 μM), the “kobs/[I]” value is 20,000 M^-1 s^-1. Moreover, the half-life in data set [1] is 0.733 h.
For `COc1cc2ccc(NC(=N)N)cc2c(=O)o1` [7-guanidino-3-methoxyisocoumarin], the kinact/KI at chymotrypsin (Table IV, [I] 0.004 to 0.33 mM) amounted to 270 M⁻¹ s⁻¹. For the same molecule, the half-life in data set [1] was determined as 4.2 h.
For `NCCCOc1oc(=O)c2ccccc2c1Cl` [3-(3-aminopropoxy)-4-chloroisocoumarin], the kinact/KI was 770 M⁻¹ s⁻¹ on mouse granzyme A; 580 M⁻¹ s⁻¹ on chymotrypsin (Table IV, [I] 0.004 to 0.33 mM); 8370 M⁻¹ s⁻¹ at rat skin tryptase (setting [2]). At human lung tryptase (Table III, [I] 0.4 to 50 μM), the “kobs/[I]” value is 2,000 M^-1 s^-1. For the same molecule, the half-life in data set [1] is 2.05 h.
Consider `CCOc1oc(=O)c2cc(NC(=N)N)ccc2c1Cl` [7-guanidino-3-ethoxy-4-chloroisocoumarin, 7-guanidino-4-chloro-3-ethoxyisocoumarin], for which the kinact/KI was 26200 M⁻¹ s⁻¹ on mouse granzyme A; 239 M⁻¹ s⁻¹ at Cl^- r; 37000 M⁻¹ s⁻¹ on chymotrypsin (Table IV, [I] 0.004 to 0.33 mM); 82000 M⁻¹ s⁻¹ on rat skin tryptase (setting [2]); 193 M⁻¹ s⁻¹ on complement protein D. The “kobs/[I]” value on human lung tryptase (Table III, [I] 0.4 to 50 μM) is recorded as 61,000 M^-1 s^-1. The half-life in data set [1] came to 0.65 h.
In the case of `N=C(N)SCCCOc1oc(=O)c2ccccc2c1Cl` [3-(3-isothiureidopropoxy)-4-chloroisocoumarin], the kinact/KI on mouse granzyme A is 17500 M⁻¹ s⁻¹; on Cl^- r, 6610 M⁻¹ s⁻¹; at chymotrypsin (Table IV, [I] 0.004 to 0.33 mM), 1700 M⁻¹ s⁻¹; on rat skin tryptase (setting [2]), 53000 M⁻¹ s⁻¹; on complement protein D, 145 M⁻¹ s⁻¹. The “kobs/[I]” value at human lung tryptase (Table III, [I] 0.4 to 50 μM) is reported as 64,000 M^-1 s^-1. Moreover, in data set [1], the half-life came to 1.65 h.
Regarding `N=C(N)SCCOc1oc(=O)c2cc(NC(=O)Nc3ccccc3)ccc2c1Cl` [PhNHCONH-CiTEtOIC, 7-(phenylcarbamoylamino)-4-chloro-3-(2-isothiureidoethoxy)isocoumarin], the kinact/KI on chymotrypsin (Table X, [I] 0.9-43 μM) is 16000 M⁻¹ s⁻¹; at rat skin tryptase (setting [3]), 170000 M⁻¹ s⁻¹. Further, the “kobs/[I]” value on human lung tryptase (Table IX, [I] 0.42-0.47 μM) is 170,000 M^-1 s^-1. Besides, the “t1/2 for spontaneous hydrolysis” value in data set [1] stood at 1.8 h.
